Assay results from patent US20240041773A1, “POWDER MIXING DEVICE, AND USES THEREOF” (University of Connecticut, priority 2022, published 2024).

Columns and labels:
[1] = Tribocharging of ibuprofen powder in V blenders, specific charge measured by Faraday cup; assay type: physicochemical
Procedure: Ibuprofen was chosen as the model blending powder 140 due to its ability to charge excessively and was evaluated in all the V blenders 110. The V blender materials were procured from McMaster-Carr (https://www.mcmaster.com/) and was fabricated at the University of Connecticut (https://uconn.edu/). Ibuprofen powder 140 was spread into thin layers onto aluminum foil and equilibrated overnight at 16% RH along with the V blender 110 before the blending experiments. Before starting the experiment, initial charge was measured using Faraday cup 200. The blender 110 was charged with the powder 140 and blended in all the blenders for different time intervals. After completion of the tribocharging experiment powder was collected in the Faraday cup 200 connected to a nano-coulombmeter to measure the charge, which was reported as charge to mass ratio, also known as specific charge (nC/g) (FIG. 9). All experiments were done in triplicate at room temperature and at 16% RH. Similar experiments were also performed using ibuprofen—excipient blends to understand equipment capability to mitigate electrostatic charging in other powders. For this study, Ibuprofen—Sugar sphere (500/600 μm) blends were evaluated using stainless steel (SS), stainless steel-PVC (SS-PVC), and PVC blenders. Sugar spheres is widely used excipient for sustained-release pellet formulations used in oral dosage forms therefore, selected for this study.
With reference to FIGS. 10-16, to study triboelectrification, a measured quantity 50 g of ibuprofen was loaded into the V blender 110 which were rotated at 13 rpm for different time intervals. The experiments were performed for different time intervals such as 2, 10, 20, 30, and 40 mins (respectively graphed as bars A-E in FIGS. 10-14) at 13 rpm and 16% relative humidity. […] Final charge with Al-PVC blender 110 of FIG. 6 as shown with the different graphed bars 12A-12E of the bar graph of FIG. 12 was negative in polarity, e.g., due to more interaction of ibuprofen with Aluminum. It can be observed after comparing specific charge from three blenders 110, the Al-PVC blender 110 of FIG. 6 can reduce charge (FIGS. 10-12).
Additionally, the graphs of these FIGS. are showing the charge in nC/g which might appear small but industrial manufacturing involves large scale handling of powders which leads to huge electrostatic charging.

[2] = Powder adhesion to blender wall (initial powder weight minus powder recovered); assay type: physicochemical
Procedure: Reference will now be to FIGS. 17A, 17B and 18. To investigate the impact of using the surface of the blender on powder adhesion to the blender material, the total powder adhesion was calculated by subtracting the amount of powder recovered and initial powder weight. […] This may be the result of significant adhesive forces between the blender wall and ibuprofen particles. The blender wall has an opposite charge as compared to ibuprofen particles therefore powder particles becomes attracted to the blender wall and deposit there due to image forces. Additionally, bipolar charging may occur due to this high level of powder adhesion which could further decrease the number of particle-blender wall collisions, further changing the powder charging dynamics.

charge accumulated compared with the PVC and Al blenders ([1]; Al-PVC blender, 13 rpm, 16% RH): significantly less | polarity of final charge ([1]; Al-PVC blender, 50 g, 13 rpm, 16% RH): negative | polarity of charge acquired ([1]; Aluminum blender, 50 g, 13 rpm, 2-40 mins, 16% RH): negatively | polarity of charge acquired ([1]; PVC blender, 50 g, 13 rpm, 2-40 mins, 16% RH): positively | polarity of charge acquired ([1]; PVC blender, 50 g, 13 rpm, 2-40 mins, 16% RH, listed as ibuprofen): positive charge | time of charge saturation ([1]; blending at 13 rpm, 16% RH): 30 min | polarity of charge acquired ([1]; stainless steel and PVC blender (SS-PVC)): negative charge | polarity of charge acquired ([1]; stainless steel blender (cGMP material)): negative charge | powder adhesion to the blender walls ([2]; dual-material blenders (Al-PVC, SS-PVC)): decrease in the powder adhesion | powder adhesion to the blender walls ([2]; metal or insulator (single-material) blenders): significant adhesion
SMILES: CC(C)Cc1ccc(C(C)C(=O)O)cc1 (stereo not shown) [Ibuprofen]
